Test results as given in US12384775B2, “Pyrimid-2-yl-pyrazole compounds as IRAK inhibitors” (Rigel Pharmaceuticals, Inc., priority 2022, dated 2025).
Where a name gives a salt, the structure may show the parent alone. Read-outs that look alike come from different tables or passages of the source.

Key:
IRAK1 = IRAK1 (Homo sapiens, UniProt P51617); test: IRAK1 ADP-Glo kinase assay; format: biochemical; settings: read-out: IRAK1 ADP-Glo Kinase, 8 pt EC50
IL23p19 in THP-1 Cells = test: LPS induced IL23p19 in THP-1 cells (IFNγ primed), ELISA; format: cell-based; settings: Homo sapiens, THP-1 cells IFNγ primed, LPS 1 μg/mL, 18 h, read-out: IL23-p19 ELISA, THP1-IFNy, LPS, 10 pt EC50
Description: On day 1, 50K/well THP-1 cells were seeded and primed with IFNγ (50 ng/mL) in 384-well plates for about 18 hours in RPMI media with 10% FBS. On day 2, the compound was serially diluted in DMSO from 5 mM in 3-fold dilutions, and then diluted 1:125 in RPMI media with 10% FBS. 50 μL/well 2× compound was added to 50 μL/well THP-1 cells (with IFNγ primed) in duplicate in 384 well tissue culture plates. The cells were pre-incubated with compound for 1 hour at 37° C., 5% CO2 before addition of 10 μL/well 11×LPS to give a final concentration of 1 μg/mL LPS. Day 3, after stimulation for 18 hours at 37° C., 5% CO2, the assay plate was centrifuged and 70 μL/well supernatant was harvested. IL-23p19 protein in 70 μL/well of supernatant was measured by sandwich ELISA, and 25 μl/well Cell Titer Glo reagent was added to the remaining cells to measure compound toxicity.
Maxisorp immuno ELISA plates were pre-coated with 25 μL/well of anti-IL-23p19 capture antibody (2.5 ug/mL) in PBS overnight at room temperature. After washing with 1×PBST, the plates were blocked using 100 μL/well of 1% BSA in PBS for 2 hours at room temperature. The plates were washed three times with 1×PBST and 70 μL/well supernatant were added. The plates were incubated at room temperature for 2 hours with shaking and washed three times with 1×PBST. 25 μL/well of biotin labeled anti-IL-12 (p40/p70) detection antibody (100 ng/mL) in PBS with 1% BSA was added and the plates were incubated at room temperature for 2 hours with shaking. After washing three times with 1× PBST, 25 μL/well of streptavidin-HRP (1:200) in PBS with 1% BSA was added and the plates were incubated at room temperature for 20 minutes with shaking. The plates were washed three times with 1× PBST and 25 μL/well of Super Signal ELISA Pico Chemiluminescent Substrate were added. The plates were read with a luminometer, and the chemiluminescence values were entered into Athena (Rigel) for curve fitting, EC50 calculation, and database storage.
THP-1 cells (100K in 100 μL/well) were primed with 25 ng/mL IFN-γ for 18 hours at 37° C., 5% CO2. Compound was serially diluted in DMSO from 2.5 mM in 4-fold dilutions, and then diluted 1:125 in RPMI 1640 complete media with 10% FBS. 100 μL/well 2× compound was mixed with the 100 μL/well IFN-7 primed THP-1 in 96 well flat-bottom white tissue culture plates. The cells were pre-incubated with compound for 1 hour at 37° C., 5% CO2 and before addition of 10 μL/well 21×LPS to give a final concentration of […] for LPS. The cells were stimulated with LPS for 18 hours at 37° C., 5% CO2. After centrifugation, 100 μL/well supernatant was extracted by using a multichannel pipette. IL-23p19 or TNF-α protein in the supernatant were measured by sandwich ELISA. The remaining IFN-7 primed THP-1 cell pellets were used to perform cell viability assays to determine compound cell toxicity. The plates were read with a luminometer, and the chemiluminescence values were entered into Athena (Rigel) for curve fitting, EC50 calculation, and database storage.
Maxisorp immuno ELISA plates were pre-coated with 100 μL/well of anti-IL-23p19 capture antibody (2.4 μg/mL) in PBS overnight at room temperature. After washing with 1×PBST, the plates were blocked using 300 μL/well of 1% BSA in PBS for 2 hours at room temperature. The plates were washed three times with 1×PBST and 100 μL/well supernatant was added. The plates were incubated at room temperature for 2 hours with shaking. The plates were washed three times with 1×PBST and 100 μL/well of biotin anti-human IL-12 (p40/70) detection antibody (10 ng/mL) in PBS with 0.1% BSA were added. The plates were incubated at room temperature for 2 hours with shaking. The plates were washed three times with 1×PBST and 100 μL/well streptavidin-HRP (1:200) in PBS with 0.1% BSA was added. The plates were incubated at room temperature for 20 minutes with shaking. […]

IRAK4 = molecular target: T1, IRAK4 (Homo sapiens, UniProt Q9NWZ3); test: IRAK4 ADP-Glo kinase assay; format: biochemical; settings: read-out: IRAK4 ADP-Glo Kinase, 8 pt EC50
T1 construct: purchased Signalchem I12-10G-20
T1 sequence (Q9NWZ3 1-460): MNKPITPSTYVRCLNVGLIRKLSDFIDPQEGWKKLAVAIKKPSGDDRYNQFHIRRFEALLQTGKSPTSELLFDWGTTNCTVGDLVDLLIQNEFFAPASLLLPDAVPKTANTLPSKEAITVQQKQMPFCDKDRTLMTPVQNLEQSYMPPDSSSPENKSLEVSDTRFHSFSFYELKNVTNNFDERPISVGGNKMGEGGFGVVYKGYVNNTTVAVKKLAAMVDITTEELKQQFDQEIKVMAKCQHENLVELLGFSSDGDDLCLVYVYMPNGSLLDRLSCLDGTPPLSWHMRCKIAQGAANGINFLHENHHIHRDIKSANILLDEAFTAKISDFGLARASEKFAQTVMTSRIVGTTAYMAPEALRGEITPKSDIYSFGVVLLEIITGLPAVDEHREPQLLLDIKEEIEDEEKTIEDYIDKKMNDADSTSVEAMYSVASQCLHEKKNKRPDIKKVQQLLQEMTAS
Description: The ADP-Glo™ reagents were thawed at ambient temperature. The Kinase Detection Reagent was prepared by mixing kinase detection buffer with the lyophilized kinase detection substrate, and set aside.
A stock volume of 5× Reaction Kinase Buffer was made with a final concentration of 100 mM MgCl2, 200 mM Tris-HCl, and 0.5 mg/ml of BSA, in distilled H2O with a final pH7.4. A 2× working stock volume of Reaction Kinase Buffer was made containing a final concentration of 100 μM DTT.
The components of IRAK4 Enzyme were thawed on ice. Diluted IRAK4 in 1× Kinase Reaction Buffer (diluted from 2× buffer) was prepared at […]. A 250 μM working stock ATP Assay Solution was prepared in 1× Kinase Reaction Buffer (diluted from 2× buffer).
The compound was diluted in DMSO from 250 µM in 4-fold series dilutions for 8 points. Then diluted 1:5 in 2× Reaction Buffer in a 96 well plate. 1.0 μl was transferred to a 384 well plate in duplicate. […] 1 μl of 1 mg/ml stock solution of MBP substrate was added NOTE: MBP can be combined with ATP mix with equal volume and then added at 2 μl/well. Final reaction volume was 5 μl. The plate was centrifuged and the reaction mixture was incubated at room temperature for 60 minutes or at 30° C. for 30 minutes.
The reaction was terminated and the remaining ATP was depleted by adding 5 μl of ADP-Glo™ Reagent. The 384-well plate was centrifuged and then the reaction mixture was incubated for another 40 minutes at ambient temperature.
10 μl of the Kinase Detection Reagent was added. The plate was centrifuged and then the reaction mixture was incubated for another 30 minutes at ambient temperature.
The 384-well reaction plate was read using the WALLAC plate reader (Luminescence 0.1s).

[1] = Bioavailability of prodrug I-3, dog; format: in vivo; settings: measured as amount of parent compound I-1 detected
[2] = Bioavailability of prodrug I-3, mouse; format: in vivo; settings: measured as amount of parent compound I-1 detected
[3] = Bioavailability of prodrug I-3, monkey; format: in vivo; settings: measured as amount of parent compound I-1 detected
[4] = Bioavailability of prodrug I-3, rat; format: in vivo; settings: measured as amount of parent compound I-1 detected

Sequence of IRAK1 (P51617 whole entry): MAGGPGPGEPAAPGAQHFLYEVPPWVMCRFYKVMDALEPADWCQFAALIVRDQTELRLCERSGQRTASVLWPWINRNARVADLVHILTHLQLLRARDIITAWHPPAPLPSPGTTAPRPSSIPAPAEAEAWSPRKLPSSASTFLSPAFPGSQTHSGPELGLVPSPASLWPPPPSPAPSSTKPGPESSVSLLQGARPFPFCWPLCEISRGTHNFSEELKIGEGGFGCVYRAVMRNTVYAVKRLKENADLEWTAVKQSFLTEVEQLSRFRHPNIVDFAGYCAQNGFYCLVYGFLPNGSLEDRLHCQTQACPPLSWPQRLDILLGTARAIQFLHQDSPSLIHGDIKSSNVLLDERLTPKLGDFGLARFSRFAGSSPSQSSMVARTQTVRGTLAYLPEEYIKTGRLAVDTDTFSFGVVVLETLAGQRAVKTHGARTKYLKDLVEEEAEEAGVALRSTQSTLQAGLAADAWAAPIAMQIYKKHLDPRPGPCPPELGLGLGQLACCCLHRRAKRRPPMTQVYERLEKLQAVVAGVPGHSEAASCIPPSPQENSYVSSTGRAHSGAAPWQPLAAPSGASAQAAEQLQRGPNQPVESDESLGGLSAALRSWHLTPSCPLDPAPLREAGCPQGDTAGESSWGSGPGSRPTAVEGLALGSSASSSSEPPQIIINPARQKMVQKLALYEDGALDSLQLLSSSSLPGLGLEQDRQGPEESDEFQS

Row | Compound | EC50 (IRAK1) | EC50 (IL23p19 in THP-1 Cells) | EC50 (IRAK4) | Bioavailability (% F) of Compound I-3 [1] | Bioavailability (% F) of Compound I-3 [2] | Bioavailability (% F) of Compound I-3 [3] | Bioavailability (% F) of Compound I-3 [4] | EC50 (IL23p19 in THP-1 Cells; THP-1, 18 h)
1 | CCO[C@H]1CC[C@H](n2cc(NC(=O)c3csc(-c4cnn(COP(=O)(O)O)c4)n3)c(-c3ncccn3)n2)CC1 [Compound I-2, (4-(4-((1-((1r,4r)-4-ethoxycyclohexyl)-3-(pyrimidin-2-yl)-1H-pyrazol-4-yl)carbamoyl)thiazol-2-yl)-1H-pyrazol-1-yl)methyl dihydrogen phosphate] | 3910 nM | 11 nM | 46.4 nM |  |  |  |  | 
2 | CCO[C@H]1CC[C@H](n2cc(NC(=O)c3csc(-c4cnn(COP(=O)(O)O)c4)n3)c(-c3ncccn3)n2)CC1 [Compound I-3, sodium (4-(4-((1-((1r,4r)-4-ethoxycyclohexyl)-3-(pyrimidin-2-yl)-1H-pyrazol-4-yl)carbamoyl)thiazol-2-yl)-1H-pyrazol-1-yl)methyl phosphate] | 61.8 nM |  | 128 nM | 53 % F | 34 % F | 71 % F | 12 % F | 54.4 nM
3 | CCO[C@H]1CC[C@H](n2cc(NC(=O)c3csc(-c4cn[nH]c4)n3)c(-c3ncccn3)n2)CC1 [Compound I-4, N-(1-((1r,4r)-4-ethoxycyclohexyl)-3-(pyrimidin-2-yl)-1H-pyrazol-4-yl)-2-(1H-pyrazol-4-yl)thiazole-4-carboxamide tartaric acid salt] | 28.1 nM |  | 18.8 nM |  |  |  |  | 2.5 nM
